Measurements taken from patent US6617337B1, “Use of nitroxides for the treatment of essential hypertension” (Georgetown University, priority 1997, dated 2003).

Tests used:
Format in all cases: in vivo, rat
[1] = test system: SHR and WKY rats; test: Maximal TGF responses during orthograde microperfusion of L-arginine (Series 5); details: for PSF difference 0-40 nl·min^−1 (maximal TGF response) / PSF during LH perfusion at 0 nl·min^−1 / PSF during LH perfusion at 40 nl·min^−1: ATF+L-arginine 10^−3 M, mean ± SEM
Description: (§1) Series 4. Effects of inhibition of bNOS on maximal TGF responses in SHR and WKY. These experiments further examined the SHR hypertension model and whether the enhanced TGF of the SHR kidney is due to a blunted generation of NO by bNOS in the macula densa or whether NOS inhibition is diminished in the SHR model. Groups of SHR and age-matched WKY rats were prepared for in vivo micropuncture, microperfusion, and TGF studies as described in detail previously. In brief, animals were anesthetized with thiobarbital (Inactin, 100 mg·kg^−1; Research Biochemicals, Inc., Natick, Mass.). A catheter was placed in a jugular vein for fluid infusion and in a femoral artery for recording of mean arterial pressure (MAP) from the electrically damped output of a pressure transducer (Statham, Inc.). A tracheotomy tube was inserted and the animals were allowed to breathe spontaneously. The left kidney was exposed by a flank incision, cleaned of connective tissue, and stabilized in a Lucite cup. This kidney was bathed in 0.154 M NaCl maintained at 37° C. After completion of surgery, rats were infused with a solution of 0.154 M NaCl and 1% albumin at 1.5 ml·h^−1 to maintain a euvolemic state. Micropuncture studies were begun after 60 min for stabilization.
(§2) For orthograde microperfusion of the loop of Henle (LH), a micropipette (8 μm OD) containing artificial tubular fluid (ATF) stained with FD&C dye was inserted into a late proximal tubule. Injections of the colored ATF identified the nephron and the direction of flow. An immobile bone wax block was inserted into this micropuncture site via a micropipette (10-15 μm) and connected to a hydraulic drive (Trent Wells, Inc., LaJolla, Calif.) to halt tubular fluid flow. A perfusion micropipette (6-8 μm) containing ATF and test compounds or vehicle was inserted into the proximal tubule downstream from the wax block and connected to a nanoliter perfusion pump (WPI, Sarasota, Fla.). A pressure micropipette (1-2 μm) was inserted into the proximal tubule upstream from the wax block to measure proximal stop flow pressure (PSF). Changes in PSF are an index of changes in glomerular capillary hydraulic pressure (PGC). Measurements of PSF were made in each nephron during zero loop perfusion and during perfusion with ATF at 40 nl·min^−1, which produces a maximal TGF response, defined as the difference between PSF values recorded during perfusion of the loop with ATF at 0 and 40 nl·min^−1.
Series 5: Maximal TGF responses during microperfusion of L-arginine in SHR and WKY. L-arginine had previously been shown not to lower blood pressure or the glomerular filtration rate in the SHR model. However, L-arginine can restore a TGF response to NOS blockade in tested rats adapted to low salt intake. Therefore, the role of L-arginine was tested in the SHR model. This series examined the effect of a reduced delivery of L-arginine to the macula densa on NO generation, as assessed in Series 4. Groups of SHR (n=4) and WKY rats (n=3) were prepared for microperfusion. PSF was recorded during orthograde LH perfusion at 0 and 40 nl·min^−1 with ATF+vehicle and ATF+L-arginine (10^−3 M). (Previous studies had shown that this was a maximally effective dose.)

[2] = test system: SHR and WKY rats; test: Maximal TGF responses (proximal stop flow pressure) during orthograde loop of Henle microperfusion of 7-NI (Series 4); details: for PSF difference 0-40 nl·min^−1 (maximal TGF response) / PSF during LH perfusion at 0 nl·min^−1 / PSF during LH perfusion at 40 nl·min^−1: ATF+7-NI 10^−4 M, mean ± SEM
Description: as §1, §2
The maximal TGF responses were determined in SHR (n=4) and WKY rats (n=4) to perfusion of the LH with ATF+vehicle and contrasted with the maximal TGF responses during perfusion with ATF+7-nitroindazole (7-NI; 10^−4 M).

[3] = test system: SHR rats; test: TGF response to 7-NI microperfused into the macula densa before and during Tempol microperfusion into efferent arterioles
Description: This also implies that it had normalized the action of NO in this setting, thereby correcting the defect in the NO action in hypertension and restoring normal vascular control. This is filly consistent with its action on a free radical scavenging agent that thereby protects NO from radical attack.

[4] = test system: SHR; test: Role of NO in the MAP response to constant Tempol infusion (L-NAME or norepinephrine pretreatment); details: for Change in MAP at 50 min (time control): separate group of SHR, NS
[5] = test system: SHR; test: TGF response to SNAP microperfused into the macula densa during Tempol microperfusion via the efferent arteriole
Description: Two additional microperfusion studies were undertaken to assess the mechanism of Tempol action in SHR. […] A dose of 10^−6 M […] (SNAP), a NO donor compound, was microperfused into the macula densa of the rats. […] Other NO donor compounds include nitroprusside and nitrates.

## N=C(N)NCCC[C@H](N)C(=O)O [L-arginine]
[1]; SHR
  PSF difference 0-40 nl·min^−1 (maximal TGF response): 10.6 ± 0.7 mm Hg
  PSF during LH perfusion at 0 nl·min^−1: 41.0 ± 1.2 mm Hg
  PSF during LH perfusion at 40 nl·min^−1: 30.4 ± 0.7 mm Hg
[1]; SHR, L-arginine added to orthograde LH perfusate
  Effect on TGF responses: no significant effects
[1]; WKY
  PSF difference 0-40 nl·min^−1 (maximal TGF response): 6.3 ± 0.4 mm Hg
  PSF during LH perfusion at 0 nl·min^−1: 36.1 ± 0.7 mm Hg
  PSF during LH perfusion at 40 nl·min^−1: 29.8 ± 0.5 mm Hg
[1]; WKY, L-arginine added to orthograde LH perfusate
  Average blunting of TGF responses: 18%

## O=[N+]([O-])c1cccc2cn[nH]c12 [7-NI, 7-nitroindazole]
[2]; SHR, 7-NI added to orthograde LH perfusate
  Effect on TGF responses: no significant effects
[2]; SHR
  PSF difference 0-40 nl·min^−1 (maximal TGF response): 12.5 ± 0.6 mm Hg
  PSF during LH perfusion at 0 nl·min^−1: 41.0 ± 1.0 mm Hg
  PSF during LH perfusion at 40 nl·min^−1: 29.3 ± 0.7 mm Hg
[2]; WKY, 7-NI added to orthograde LH perfusate
  Average increase in maximal TGF response: 39%
[2]; WKY
  PSF difference 0-40 nl·min^−1 (maximal TGF response): 13.2 ± 0.7 mm Hg
  PSF during LH perfusion at 0 nl·min^−1: 38.1 ± 0.8 mm Hg
  PSF during LH perfusion at 40 nl·min^−1: 25.0 ± 1.2 mm Hg
[3]; 7-NI 10^−4 M during Tempol 10^−4 M microperfusion into efferent arterioles
  Increase in TGF in the presence of 7-NI: greater than 25%
[3]; 7-NI 10^−4 M into macula densa, before Tempol
  TGF response to 7-NI before Tempol: no significant TGF response

## NC[C@H](O)c1ccc(O)c(O)c1 [Norepinephrine, norepinephrine]
[4]; SHR, norepinephrine 31 nmol·kg^−1·min^−1
  Increase in MAP: 15%
[4]; SHR, norepinephrine 31 nmol·kg^−1·min^−1, from 164±4
  MAP after norepinephrine infusion: 188±7 mm Hg
[4]; norepinephrine infusion
  Change in MAP at 50 min (time control): 2.0±0.0%

## COC(=O)[C@@H](N)CCCNC(=N)N[N+](=O)[O-] [L-NAME]
[4]; SHR, twenty minutes of L-NAME infusion alone
  Increase in MAP: 18%
[4]; SHR, twenty minutes of L-NAME infusion, from 158±11
  MAP after L-NAME infusion alone: 187±8 mm Hg
[4]; L-NAME infusion
  Change in MAP at 50 min (time control): 0.3±3.3%

## CC(=O)N[C@H](C(=O)O)C(C)(C)SN=O (racemic) [SNAP, 5-nitroacetylpenacillamine]
[5]; SNAP 10^−6 M during Tempol 10^−4 M microperfusion via efferent arteriole, p<0.01
  Blunting of TGF response: more than 25%
[5]; SNAP 10^−6 M into macula densa, without Tempol
  Effect of SNAP dose alone on TGF: just subthreshold
